Experimental data as given in patent US20220280653A1, “INTERCELLULAR ADHESION MOLECULE 1 (ICAM1) ANTIBODY DRUG CONJUGATE AND USES THEREOF” (Children's Medical Center Corporation, priority 2019, published 2022).
Structures can show the parent of a compound that is named as a salt.

Legend:
[1] = system: PANC-1 cells; assay: Cytotoxicity assay (CCK-8); type: cell-based; conditions: Homo sapiens; PANC-1, 72 hours
[2] = in vivo; cited from earlier work

## Nc1ccn([C@@H]2O[C@H](CO)[C@@H](O)C2(F)F)c(=O)n1 [GEM, Gemcitabine hydrochloride]
[1]
  IC50: 89.1 µM
[2]
  circulation half-life: 16.8 min
